According to patent US4416884A, “Piperazinylbenzoheterocyclic compounds” (Otsuka Pharmaceutical Co., Ltd., priority 1978, dated 1983):
≈ marks a conversion by molar mass, not a printed value. Counter-ions that a name gives are not always drawn. Like-named read-outs stand apart in the source and are kept apart here.

Experiments:
Assay in all cases: antimicrobial activity, serial dilution method on agar plate
Type in all cases: cell-based
[1] = system: Escherichia Coli NIHJ JC-2 (IFO 12734); settings: for MIC: Escherichia coli, read-out: Minimum Inhibitory Concentration
Method: (§1) The antimicrobial activity of the following test compounds on various test organisms listed below was determined by the serial dilution method on agar plate (Heart Infusion agar produced by Difco Co.) (see CHEMOTHERAPY 22, pp. 1126-1128 (1974)), and the minimum inhibitory concentrations (mcg/ml) obtained are shown in Table 1 below.
(§2) A sample of each test organism was prepared so that the population of the organism was 1×10^8 cells/ml (O.D. 660 mμ=0.07 to 0.16) and 1×10^6 cells/ml (which was obtained by diluting the above 1×10^8 cells/ml preparation).

[2] = system: Klebsiella pneumoniae
Method: as §1, §2

[3] = system: Proteus rettgeri NIH 96; settings: Providencia rettgeri
Method: as §1, §2

[4] = system: Pseudomonas aeruginosa ATCC 10145
Method: as §1, §2

[5] = system: Pseudomonas aeruginosa E-2
Method: as §1, §2

[6] = system: Pseudomonas aeruginosa NCTC 10490
Method: as §1, §2

[7] = system: Salmonella typhi 0-901 (NCTC 8393); settings: Salmonella enterica
Method: as §1, §2

[8] = system: Serattia marcescens IFO 12648
Method: as §1, §2

[9] = system: Shigella Sonnei EW 33; settings: read-out: Minimum Inhibitory Concentration
Method: as §1, §2

[10] = system: Staphylococcus aureus FDA 209 P
Method: as §1, §2

[11] = system: Streptococcus pyogenes IID S-23
Method: as §1, §2

[12] = read-out: Minimum Inhibitory Concentration, inoculum 1 × 10^8 cells/ml
[13] = NIH96, read-out: Minimum Inhibitory Concentration, inoculum 1 × 10^8 cells/ml
[14] = ATCC10145, read-out: Minimum Inhibitory Concentration, inoculum 1 × 10^8 cells/ml
[15] = E2, read-out: Minimum Inhibitory Concentration, inoculum 1 × 10^8 cells/ml
[16] = NCTC10490, read-out: Minimum Inhibitory Concentration, inoculum 1 × 10^8 cells/ml
[17] = inoculum 1 × 10^8 cells/ml, read-out: Minimum Inhibitory Concentration
[18] = FDA209, read-out: Minimum Inhibitory Concentration, inoculum 1 × 10^8 cells/ml
[19] = NIH96, inoculum 1 × 10^8 cells/ml, read-out: Minimum Inhibitory Concentration
[20] = ATCC10145, inoculum 1 × 10^8 cells/ml, read-out: Minimum Inhibitory Concentration
[21] = E2, inoculum 1 × 10^8 cells/ml, read-out: Minimum Inhibitory Concentration
[22] = NCTC10490, inoculum 1 × 10^8 cells/ml, read-out: Minimum Inhibitory Concentration
[23] = FDA209, inoculum 1 × 10^8 cells/ml, read-out: Minimum Inhibitory Concentration
[24] = read-out: Minimum Inhibitory Concentration, inoculum 1 × 10^6 cells/ml
[25] = inoculum 1 × 10^6 cells/ml, read-out: Minimum Inhibitory Concentration
[26] = NIH96, inoculum 1 × 10^6 cells/ml, read-out: Minimum Inhibitory Concentration
[27] = ATCC10145, inoculum 1 × 10^6 cells/ml, read-out: Minimum Inhibitory Concentration
[28] = E2, inoculum 1 × 10^6 cells/ml, read-out: Minimum Inhibitory Concentration
[29] = NCTC10490, inoculum 1 × 10^6 cells/ml, read-out: Minimum Inhibitory Concentration
[30] = FDA209, inoculum 1 × 10^6 cells/ml, read-out: Minimum Inhibitory Concentration
[31] = IIDS23, inoculum 1 × 10^6 cells/ml, read-out: Minimum Inhibitory Concentration
[32] = IIDS23, inoculum 1 × 10^8 cells/ml, read-out: Minimum Inhibitory Concentration

SMILES	MIC [1] [µg/mL]	MIC [2, 12] [µg/mL]	MIC [3, 13] [µg/mL]	MIC [4, 14] [µg/mL]	MIC [5, 15] [µg/mL]	MIC [6, 16] [µg/mL]	MIC [7, 17] [µg/mL]	MIC [8, 12] [µg/mL]	MIC ([9]; inoculum 1 × 10^8 cells/ml) [µg/mL]	MIC [10, 18] [µg/mL]	MIC ([1]; inoculum 1 × 10^8 cells/ml) [µg/mL]	MIC [2, 17] [µg/mL]	MIC [3, 19] [µg/mL]	MIC [4, 20] [µg/mL]	MIC [5, 21] [µg/mL]	MIC [6, 22] [µg/mL]	MIC [7, 12] [µg/mL]	MIC [8, 17] [µg/mL]	MIC [10, 23] [µg/mL]	MIC ([9]; inoculum 1 × 10^6 cells/ml) [µg/mL]	also measured
O=C(O)c1cn2c3c(c(N4CCNCC4)ccc3c1=O)CC2 [Compound Q, 9-(1-Piperazinyl)-6-oxo-1,2-dihydro-6H--pyrrolo[3,2,1-ij]quinoline-5-carboxylic acid hydrochloride]	25	12.5	25	50	50	25	6.3	6.3	3.1	100	–	–	–	–	–	–	–	–	–	–	–
O=C(O)c1cn2c3c(c(N4CCN(Cc5ccccc5)CC4)ccc3c1=O)CCC2 [Compound R, 8-(4-Benzyl-1-piperazinyl)-6,7-dihydro-1-oxo-1H,5H--benzo[ij]quinolizine-2-carboxylic acid]	–	–	–	–	–	–	–	–	1.6 (≈ 3.97 µM)	–	1.6 (≈ 3.97 µM)	3.1 (≈ 7.68 µM)	1.6 (≈ 3.97 µM)	25 (≈ 62 µM)	25 (≈ 62 µM)	12.5 (≈ 31 µM)	1.6 (≈ 3.97 µM)	3.1 (≈ 7.68 µM)	12.5 (≈ 31 µM)	–	–
Cc1ccc(S(=O)(=O)N2CCN(c3ccc4c(=O)c(C(=O)O)cn5c4c3CCC5)CC2)cc1 [Compound S, 8-(4-p-Toluenesulfonyl-1-piperazinyl)-6,7-dihydro-1-oxo-1H,5H--benzo[ij]quinolizine-2-carboxylic acid]	–	–	–	–	–	–	–	–	3.1 (≈ 6.63 µM)	–	1.6 (≈ 3.42 µM)	3.1 (≈ 6.63 µM)	3.1 (≈ 6.63 µM)	25 (≈ 53.5 µM)	50 (≈ 107 µM)	12.5 (≈ 26.7 µM)	1.6 (≈ 3.42 µM)	6.3 (≈ 13.5 µM)	6.3 (≈ 13.5 µM)	–	–
CC1CCc2c(N3CCNCC3)c(Cl)cc3c(=O)c(C(=O)O)cn1c23 (stereo not drawn) [Compound T, 8-(1-Piperazinyl)-9-chloro-5-methyl-6,7-dihydro-1-oxo-1H,5H--benzo[ij]quinolizine-2-carboxylic acid hydrochloride hydrate]	0.4	0.4	0.2	3.1	3.1	1.6	0.2	1.6	0.2	1.6	–	–	–	–	–	–	–	–	–	0.2	Minimum Inhibitory Concentration ([1]; inoculum 1 × 10^6 cells/ml): 0.4 µg/mL; MIC [2, 24]: 0.4 µg/mL; MIC ([3]; NIH96, read-out: Minimum Inhibitory Concentration, inoculum 1 × 10^6 cells/ml): 0.2 µg/mL; MIC ([4]; ATCC10145, read-out: Minimum Inhibitory Concentration, inoculum 1 × 10^6 cells/ml): 1.6 µg/mL; MIC ([5]; E2, read-out: Minimum Inhibitory Concentration, inoculum 1 × 10^6 cells/ml): 3.1 µg/mL; MIC ([6]; NCTC10490, read-out: Minimum Inhibitory Concentration, inoculum 1 × 10^6 cells/ml): 1.6 µg/mL; MIC [7, 25]: 0.1 µg/mL; MIC [8, 24]: 1.6 µg/mL; MIC ([10]; FDA209, read-out: Minimum Inhibitory Concentration, inoculum 1 × 10^6 cells/ml): 1.6 µg/mL; MIC ([11]; IIDS23, read-out: Minimum Inhibitory Concentration, inoculum 1 × 10^6 cells/ml): 3.1 µg/mL; MIC ([11]; IIDS23, read-out: Minimum Inhibitory Concentration, inoculum 1 × 10^8 cells/ml): 6.3 µg/mL
CC1CCc2c(N3CCN(C)CC3)c(Cl)cc3c(=O)c(C(=O)O)cn1c23 (stereo not drawn) [Compound U, 8-(4-Methyl-1-piperazinyl)-9-chloro-5-methyl-6,7-dihydro-1-oxo-1H,5H--benzo[ij]-quinolizine-2-carboxylic acid]	–	–	–	–	–	–	–	–	0.2 (≈ 0.532 µM)	–	0.2 (≈ 0.532 µM)	0.2 (≈ 0.532 µM)	0.4 (≈ 1.06 µM)	3.1 (≈ 8.25 µM)	6.3 (≈ 16.8 µM)	1.6 (≈ 4.26 µM)	≤ 0.05	0.4 (≈ 1.06 µM)	0.8 (≈ 2.13 µM)	0.1 (≈ 0.266 µM)	MIC ([1]; inoculum 1 × 10^6 cells/ml): 0.2 µg/mL (≈ 0.532 µM); MIC [2, 25]: 0.2 µg/mL (≈ 0.532 µM); MIC [3, 26]: 0.4 µg/mL (≈ 1.06 µM); MIC [4, 27]: 3.1 µg/mL (≈ 8.25 µM); MIC [5, 28]: 6.3 µg/mL (≈ 16.8 µM); MIC [6, 29]: 1.6 µg/mL (≈ 4.26 µM); MIC [7, 24]: ≤ 0.05 µg/mL; MIC [8, 25]: 0.4 µg/mL (≈ 1.06 µM); MIC [10, 30]: 0.4 µg/mL (≈ 1.06 µM); MIC [11, 31]: 3.1 µg/mL (≈ 8.25 µM); MIC [11, 32]: 3.1 µg/mL (≈ 8.25 µM)
CC1CCc2c(N3CCN(C=O)CC3)c(Cl)cc3c(=O)c(C(=O)O)cn1c23 (stereo not drawn) [Compound V, 8-(4-Formyl-1-piperazinyl)-9-chloro-5-methyl-6,7-dihydro-1-oxo-1H,5H--benzo[ij]-quinolizine-2-carboxylic acid]	–	–	–	–	–	–	–	–	0.8 (≈ 2.05 µM)	–	0.8 (≈ 2.05 µM)	0.8 (≈ 2.05 µM)	0.8 (≈ 2.05 µM)	12.5 (≈ 32.1 µM)	12.5 (≈ 32.1 µM)	3.1 (≈ 7.95 µM)	0.2 (≈ 0.513 µM)	3.1 (≈ 7.95 µM)	0.2 (≈ 0.513 µM)	0.4 (≈ 1.03 µM)	MIC ([1]; inoculum 1 × 10^6 cells/ml): 0.8 µg/mL (≈ 2.05 µM); MIC [2, 25]: 0.8 µg/mL (≈ 2.05 µM); MIC [3, 26]: 0.8 µg/mL (≈ 2.05 µM); MIC [4, 27]: 12.5 µg/mL (≈ 32.1 µM); MIC [5, 28]: 6.3 µg/mL (≈ 16.2 µM); MIC [6, 29]: 1.6 µg/mL (≈ 4.1 µM); MIC [7, 24]: 0.2 µg/mL (≈ 0.513 µM); MIC [8, 25]: 3.1 µg/mL (≈ 7.95 µM); MIC [10, 30]: 0.2 µg/mL (≈ 0.513 µM); MIC [11, 31]: 1.6 µg/mL (≈ 4.1 µM); MIC [11, 32]: 3.1 µg/mL (≈ 7.95 µM)
